The values that follow come from patent US20260250251A1, “HETEROCYCLIC COMPOUNDS AS PI3Ka INHIBITORS” (Pikavation Therapeutics, Inc., priority 2022, published 2026).

Experiment [1] deals with SKBR3 (PIK3CA WT) cells, pSer473 AKT. The experiment in a line: pS473 AKT assay in SKBR3 cells. Format: cell-based. The settings on record: Homo sapiens, SK-BR-3, treated 2 h, read-out: SKBR3_IC50. The procedure: (§1) SKBR3 (PIK3CA WT), MCF7 (PIK3CA E545K), and T47D (PIK3CA H1047R) cells were cultured using 10-cm petri dishes with recommended medium. One day before the assay, cells were seeded in 96-well plates. After overnight incubation, cells were treated with different concentrations of PI3Kα inhibitors for 2 h. Cells were then fixed using 4% paraformaldehyde at room temperature for 20 min. Cells were aspirated with 4% paraformaldehyde, and washed using 1× regular phosphate buffered saline 3 times, 5 min each. Any residual phosphate buffered saline was aspirated and cells were blocked using 10% goat serum containing 1% bovine serum albumin and 0.3% Triton X-100 at room temperature for 1 h. Without any additional washing, primary antibodies (rabbit anti-pSer473 AKT) were diluted using blocking buffer and added at a final volume of 50 microliter per well. Assay plates with primary antibodies were maintained overnight at 4° C. Cells were washed using 1× regular phosphate buffered saline 3 times, 5 min each. After the final wash, cells were incubated with horseradish peroxidase-conjugated secondary antibodies (goat Anti-rabbit IgG) and diluted using the same blocking buffer at room temperature for 1 h. Cells were then washed thoroughly using 1× regular phosphate buffered saline 3 times, 5 min each, and any residual phosphate buffered saline was aspirated. Super-Signal ELISA Pico Chemiluminescent Substrate was then added at a final volume of 100 microliter per well. Plates were read on a i3x Multi-Mode Microplate Reader and IC50 values calculated using GraphPad Prism software.
(§2) Results of the assay described above are presented in Table A. “++++” indicates an IC50 less than 1000 nM; “+++” indicates an IC50 greater than or equal to 1000 nM but less than 5000 nM; “++” indicates an IC50 greater than or equal to 5000 nM but less than 10000 nM; and “+” indicates an IC50 greater than or equal to 10000 nM.

Experiment [2] relates to T47D (PIK3CA H1047R) cells, pSer473 AKT. As to the kind of experiment: pS473 AKT assay in T47D cells. The settings on record: Homo sapiens, treated 2 h, read-out: T47D_IC50. Type of experiment: cell-based. The procedure: as §1, §2

Where only a bound is given, the exact number is not on record here.

On to `Nc1n[nH]c2c(Br)cc(NC(=O)c3cc(F)cc(C(F)(F)F)c3)c(Oc3cc(F)ccc3Cl)c12` [Example 11, N-(3-Amino-7-bromo-4-(2-chloro-5-fluorophenoxy)-1H-indazol-5-yl)-3-fluoro-5-(trifluoromethyl)benzamide], for which the IC50 in experiment [1] and in experiment [2] was under 1000 nM in each case.
For the molecule `Cn1nc(N)c2c(Oc3cc(F)ccc3Cl)c(NC(=O)c3cc(F)cc(C(F)(F)F)c3)cc(N3CCn4ncnc4C3)c21` [Example 55, N-(3-Amino-4-(2-chloro-5-fluorophenoxy)-7-(5,6-dihydro-[1,2,4]triazolo[1,5-a]pyrazin-7(8H)-yl)-1-methyl-1H-indazol-5-yl)-3-fluoro-5-(trifluoromethyl)benzamide], the results for the IC50 in experiment [1] and in experiment [2] were 1000 to 5000 nM and under 1000 nM, respectively.
As for `CNc1nn(C)c2c(Cl)cc(NC(=O)c3cc(F)cc(C(F)(F)F)c3)c(Oc3cc(F)ccc3Cl)c12` [Example 53, N-(7-chloro-4-(2-chloro-5-fluorophenoxy)-1-methyl-3-(methylamino)-1H-indazol-5-yl)-3-fluoro-5-(trifluoromethyl)benzamide], the IC50 is at least 10000 nM in experiment [1] and under 1000 nM in experiment [2].
For `Nc1n[nH]c2ccc(NC(=O)c3cc(F)cc(C(F)(F)F)c3)c(Cc3cc(F)ccc3Cl)c12` [Example 5, N-(3-Amino-4-(2-chloro-5-fluorobenzyl)-1H-indazol-5-yl)-3-fluoro-5-(trifluoromethyl)benzamide] the same measures were 5000 to 10000 nM and 1000 to 5000 nM.
The matching figures for `Cn1nc(N)c2c(Oc3cc(F)ccc3Cl)c(NC(=O)c3cc(F)cc(C(F)(F)F)c3)cc(C#CC(C)(C)N)c21` [Example 40, N-(3-Amino-7-(3-amino-3-methylbut-1-yn-1-yl)-4-(2-chloro-5-fluorophenoxy)-1-methyl-1H-indazol-5-yl)-3-fluoro-5-(trifluoromethyl)benzamide]: under 1000 nM and under 1000 nM.
For `Cn1nc(N)c2c(Oc3cc(F)ccc3Cl)c(NC(=O)c3cccc(C(F)(F)F)c3)cc(Cl)c21` [Example 61, N-(3-Amino-7-chloro-4-(2-chloro-5-fluorophenoxy)-1-methyl-1H-indazol-5-yl)-3-(trifluoromethyl)benzamide] the same measures were 5000 to 10000 nM and under 1000 nM.
As to `Cn1nc(N)c2c(Oc3cc(F)ccc3Cl)c(NC(=O)c3cc(F)cc(Cl)c3)cc(Cl)c21` [Example 60, N-(3-Amino-7-chloro-4-(2-chloro-5-fluorophenoxy)-1-methyl-1H-indazol-5-yl)-3-chloro-5-fluorobenzamide], the IC50 in experiment [1] and in experiment [2] was under 1000 nM throughout.
For `CN1Cc2cc(NC(=O)c3cc(F)cc(C(F)(F)F)c3)c(Oc3cc(F)ccc3Cl)c3c(N)nn(c23)C1=O` [Example 69, N-(2-Amino-3-(2-chloro-5-fluorophenoxy)-7-methyl-8-oxo-7,8-dihydro-6H-pyrazolo[4,5,1-ij]quinazolin-4-yl)-3-fluoro-5-(trifluoromethyl)benzamide], the IC50 in experiment [1] and in experiment [2] was under 1000 nM in each case.
Take `Cn1nc(N)c2c(Oc3cc(F)ccc3Cl)c(NC(=O)c3cc(F)cc(C(F)(F)F)c3)cc(Cl)c21` [Example 24, N-(3-Amino-7-chloro-4-(2-chloro-5-fluorophenoxy)-1-methyl-1H-indazol-5-yl)-3-fluoro-5-(trifluoromethyl)benzamide]: the IC50 in experiment [1] and in experiment [2] was under 1000 nM each time.
Turning to `Nc1n[nH]c2c(Cl)cc(NC(=O)c3cc(F)cc(C(F)(F)F)c3)c(Oc3cc(F)ccc3Cl)c12` [Example 12, N-(3-Amino-7-chloro-4-(2-chloro-5-fluorophenoxy)-1H-indazol-5-yl)-3-fluoro-5-(trifluoromethyl)benzamide], the IC50 in experiment [1] and in experiment [2] was under 1000 nM throughout.
With `Cc1cc(NC(=O)c2cc(F)cc(C(F)(F)F)c2)c(Oc2cc(F)ccc2Cl)c2c(N)n[nH]c12` [Example 13, N-(3-Amino-4-(2-chloro-5-fluorophenoxy)-7-methyl-1H-indazol-5-yl)-3-fluoro-5-(trifluoromethyl)benzamide], the IC50 in experiment [1] and in experiment [2] was under 1000 nM throughout.
As for `Cn1nc(N)c2c(Oc3cc(F)ccc3Cl)c(NC(=O)c3cc(F)cc(C(F)(F)F)c3)cc(C#CC3CCOC3)c21` (stereo not shown) [Example 41, N-(3-Amino-4-(2-chloro-5-fluorophenoxy)-1-methyl-7-((tetrahydrofuran-3-yl)ethynyl)-1H-indazol-5-yl)-3-fluoro-5-(trifluoromethyl)benzamide], the IC50 in experiment [1] is 1000 to 5000 nM; in experiment [2] it was under 1000 nM.
For `CC(=O)N1CCCCC1C#Cc1cc(NC(=O)c2cc(F)cc(C(F)(F)F)c2)c(Oc2cc(F)ccc2Cl)c2c(N)nn(C)c12` (stereo not shown) [Example 79, N-(7-((1-Acetylpiperidin-2-yl)ethynyl)-3-amino-4-(2-chloro-5-fluorophenoxy)-1-methyl-1H-indazol-5-yl)-3-fluoro-5-(trifluoromethyl)benzamide] the same measures were 1000 to 5000 nM and under 1000 nM.
The matching figures for `CCNC(=O)c1cc(NC(=O)c2cc(F)cc(C(F)(F)F)c2)c(Oc2cc(F)ccc2Cl)c2c(N)nn(C)c12` [Example 65, 3-Amino-4-(2-chloro-5-fluorophenoxy)-N-ethyl-5-(3-fluoro-5-(trifluoromethyl)benzamido)-1-methyl-1H-indazole-7-carboxamide]: under 1000 nM and under 1000 nM.
For `Nc1n[nH]c2ccc(NC(=O)c3cc(F)cc(C(F)(F)F)c3)c(Oc3cc(F)ccc3Cl)c12` [Example 1, N-(3-Amino-4-(2-chloro-5-fluorophenoxy)-1H-indazol-5-yl)-3-fluoro-5-(trifluoromethyl)benzamide] the same measures were under 1000 nM and under 1000 nM.
For the molecule `NC(=O)Cn1nc(N)c2c(Oc3cc(F)ccc3Cl)c(NC(=O)c3cc(F)cc(C(F)(F)F)c3)cc(Br)c21` [Example 33, N-(3-Amino-1-(2-amino-2-oxoethyl)-7-bromo-4-(2-chloro-5-fluorophenoxy)-1H-indazol-5-yl)-3-fluoro-5-(trifluoromethyl)benzamide], the IC50 in experiment [1] was 1000 to 5000 nM; in experiment [2] it was under 1000 nM.
On to `Nc1nn(CCO)c2c(C#Cc3ccccn3)cc(NC(=O)c3cc(F)cc(C(F)(F)F)c3)c(Oc3cc(F)ccc3Cl)c12` [Example 67, N-(3-Amino-4-(2-chloro-5-fluorophenoxy)-1-(2-hydroxyethyl)-7-(pyridin-2-ylethynyl)-1H-indazol-5-yl)-3-fluoro-5-(trifluoromethyl)benzamide], for which the results for the IC50 in experiment [1] and in experiment [2] were 1000 to 5000 nM and under 1000 nM, respectively.
Take `Nc1nn2c3c(cc(NC(=O)c4cc(F)cc(C(F)(F)F)c4)c(Oc4cc(F)ccc4Cl)c13)CN(C1CCC1)C2=O` [Example 72, N-(2-Amino-3-(2-chloro-5-fluorophenoxy)-7-cyclobutyl-8-oxo-7,8-dihydro-6H-pyrazolo[4,5,1-ij]quinazolin-4-yl)-3-fluoro-5-(trifluoromethyl)benzamide]: the IC50 in experiment [1] and in experiment [2] was under 1000 nM each time.
Consider `Nc1n[nH]c2c(CO)cc(NC(=O)c3cc(F)cc(C(F)(F)F)c3)c(Oc3cc(F)ccc3Cl)c12` [Example 23, N-(3-Amino-4-(2-chloro-5-fluorophenoxy)-7-(hydroxymethyl)-1H-indazol-5-yl)-3-fluoro-5-(trifluoromethyl)benzamide], for which the IC50 in experiment [1] and in experiment [2] was under 1000 nM each time.
For `CNC(=O)Cn1nc(N)c2c(Oc3cc(F)ccc3Cl)c(NC(=O)c3cc(F)cc(C(F)(F)F)c3)ccc21` [Example 9, N-(3-Amino-4-(2-chloro-5-fluorophenoxy)-1-(2-(methylamino)-2-oxoethyl)-1H-indazol-5-yl)-3-fluoro-5-(trifluoromethyl)benzamide], the IC50 in experiment [1] was 1000 to 5000 nM; in experiment [2], under 1000 nM.
Regarding `Cn1nc(N)c2c(Oc3cc(F)ccc3Cl)c(NC(=O)c3cncc(C(F)(F)F)c3)cc(Cl)c21` [Example 62, N-(3-Amino-7-chloro-4-(2-chloro-5-fluorophenoxy)-1-methyl-1H-indazol-5-yl)-5-(trifluoromethyl)nicotinamide], the values for the IC50 in experiment [1] and in experiment [2] were 1000 to 5000 nM and under 1000 nM, respectively.
Turning to `Cn1cnc(C#Cc2cc(NC(=O)c3cc(F)cc(C(F)(F)F)c3)c(Oc3cc(F)ccc3Cl)c3c(N)nn(C)c23)c1` [Example 50, N-(3-Amino-4-(2-chloro-5-fluorophenoxy)-1-methyl-7-((1-methyl-1H-imidazol-4-yl)ethynyl)-1H-indazol-5-yl)-3-fluoro-5-(trifluoromethyl)benzamide], the values for the IC50 in experiment [1] and in experiment [2] were 5000 to 10000 nM and under 1000 nM, respectively.
The matching figures for `Cn1ccc(C#Cc2cc(NC(=O)c3cc(F)cc(C(F)(F)F)c3)c(Oc3cc(F)ccc3Cl)c3c(N)nn(C)c23)n1` [Example 48, N-(3-Amino-4-(2-chloro-5-fluorophenoxy)-1-methyl-7-((1-methyl-1H-pyrazol-3-yl)ethynyl)-1H-indazol-5-yl)-3-fluoro-5-(trifluoromethyl)benzamide]: 1000 to 5000 nM and under 1000 nM.
